The first assay addresses IRAK4 (Homo sapiens (Human), UniProt Q9NWZ3). The experiment in a line: IRAK4 kinase activity, IMAP fluorescence polarization assay. As to conditions: 100 μM ATP, 0.5 nM GST tagged IRAK4; read-out: IRAK4 IC50. The format is biochemical. In a few lines: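 GST-tagged IRAK4 at 0.5 nM phosphorylates 100 nM fluorescent peptide substrate with 100 μM ATP in pH 7.2 Tris buffer containing MgCl2, DTT and Tween 20, 30 min at 25 °C. Reaction stopped with IMAP binding reagent; phosphorylation read as increased fluorescence polarization.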
Chain of IRAK4 (Q9NWZ3 whole entry): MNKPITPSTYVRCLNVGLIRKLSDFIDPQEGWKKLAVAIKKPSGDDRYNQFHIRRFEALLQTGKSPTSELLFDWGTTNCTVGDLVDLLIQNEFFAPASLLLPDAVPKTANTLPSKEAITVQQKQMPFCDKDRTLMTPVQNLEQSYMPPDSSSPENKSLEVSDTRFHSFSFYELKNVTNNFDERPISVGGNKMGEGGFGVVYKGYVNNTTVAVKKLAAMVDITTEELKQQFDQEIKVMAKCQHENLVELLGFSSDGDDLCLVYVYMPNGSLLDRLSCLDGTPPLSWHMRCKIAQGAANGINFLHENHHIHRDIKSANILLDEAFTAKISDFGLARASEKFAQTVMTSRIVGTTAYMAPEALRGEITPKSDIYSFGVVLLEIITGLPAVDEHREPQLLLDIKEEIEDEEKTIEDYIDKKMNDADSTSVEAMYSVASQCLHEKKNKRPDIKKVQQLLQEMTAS
Usually IC50 stands for the concentration that inhibits the measured activity by half. Turning to `O=c1[nH]c(N2CCOCC2)nc(NCC(O)CO)c1-c1nc2ccccc2s1` (centres unmarked) [Example 246, 5-(1,3-benzothiazol-2-yl)-6-[(2,3-dihydroxypropyl)amino]-2-(morpholin-4-yl)-3,4-dihydropyrimidin-4-one], the IC50 is 8100 nM.

The assay is the same for the next values; noted with them: 100 μM ATP; read-out: IC50.
As for `N[C@H]1C[C@H]1Nc1nc(N2CCOCC2)[nH]c(=O)c1-c1nc2ccccc2s1` [Example 247, 6-[[(1R,2S)-2-amino-cyclopropyl]amino]-5-(1,3-benzothiazol-2-yl)-2-(morpholin-4-yl)-3,4-dihydropyrimidin-4-one], the IC50 came out at 3000 nM.

In the case of `CC1(Nc2nc(N3CCOCC3)[nH]c(=O)c2-c2nc3ccccc3s2)CCCNC1` (centres unmarked) [Example 248, 5-(1,3-benzothiazol-2-yl)-6-[(3-methylpiperidin-3-yl)amino]-2-(morpholin-4-yl)-3,4-dihydro-pyrimidin-4-one], the half-maximal inhibitory concentration (IC50) turned out to be 150 nM.

`NC(=O)CNc1nc(N2CCOCC2)[nH]c(=O)c1-c1nc2ccccc2s1` [Example 249, 2-[[5-(1,3-benzothiazol-2-yl)-2-(morpholin-4-yl)-6-oxo-1,6-dihydropyrimidin-4-yl]amino]acetamide]: the IC50 worked out at 3900 nM.

On to `N=C(N)CNc1nc(N2CCOCC2)[nH]c(=O)c1-c1nc2ccccc2s1` [Example 250, 2-[[5-(1,3-benzothiazol-2-yl)-2-(morpholin-4-yl)-6-oxo-1,6-dihydropyrimidin-4-yl]amino]ethanimidamide], for which the IC50 turned out to be 300 nM.

As for `O=c1[nH]c(N2CCOCC2)nc(NCCNCCO)c1-c1nc2ccccc2s1` [Example 251, 5-(benzo[d]thiazol-2-yl)-6-(2-(2-hydroxyethyl-amino)ethylamino)-2-morpholino-pyrimidin-4(3H)-one], the half-inhibitory concentration (IC50) is 640 nM.

As for `CN1CCCC(Nc2nc(N3CCOCC3)[nH]c(=O)c2-c2nc3ccccc3s2)C1` (centres unmarked) [Example 252, 5-(1,3-benzothiazol-2-yl)-6-[(1-methylpiperidin-3-yl)amino]-2-(morpholin-4-yl)-3,4-dihydro-pyrimidin-4-one], the half-maximal inhibitory concentration (IC50) worked out at 1200 nM.

As to `O=c1[nH]c(N2CCOCC2)nc(NC2CNC2)c1-c1nc2ccccc2s1` [Example 253, 6-[(azetidin-3-yl)amino]-5-(1,3-benzothiazol-2-yl)-2-(morpholin-4-yl)-3,4-dihydro-pyrimidin-4-one], the IC50 was 300 nM.

For the compound `O=c1[nH]c(N2CCOCC2)nc(NCC2CCCCN2)c1-c1nc2ccccc2s1` (centres unmarked) [Example 254, 5-(1,3-benzothiazol-2-yl)-2-(morpholin-4-yl)-6-[(piperidin-2-ylmethyl)amino]-3,4-dihydro-pyrimidin-4-one], the IC50 worked out at 1600 nM.

Turning to `CCN1CCCC1CNc1nc(N2CCOCC2)[nH]c(=O)c1-c1nc2ccccc2s1` (centres unmarked) [Example 255, 5-(1,3-benzothiazol-2-yl)-6-[[(1-ethylpyrrolidin-2-yl)methyl]amino]-2-(morpholin-4-yl)-3,4-dihydropyrimidin 4-one], the half-inhibitory concentration (IC50) was found to be 2000 nM.

`O=c1[nH]c(N2CCOCC2)nc(NCCN2CCNCC2)c1-c1nc2ccccc2s1` [Example 256, 5-(1,3-benzothiazol-2-yl)-2-(morpholin-4-yl)-6-[[2-(piperazin-1-yl)ethyl]amino]-3,4-dihydropyrimidin-4-one]: the IC50 was 55 nM.

As to `O=c1[nH]c(N2CCOCC2)nc(NCCN2CCCCC2)c1-c1nc2ccccc2s1` [Example 257, 5-(1,3-benzothiazol-2-yl)-2-(morpholin-4-yl)-6-[[2-(piperidin-1-yl)ethyl]amino]-3,4-dihydropyrimidin-4-one], the IC50 amounted to 2 nM.

Regarding `O=c1[nH]c(N2CCOCC2)nc(NCCN2CCC(O)CC2)c1-c1nc2ccccc2s1` [Example 258, 5-(1,3-benzothiazol-2-yl)-6-[[2-(4-hydroxypiperidin-1-yl)ethyl]amino]-2-(morpholino-4-yl)-3,4-dihydropyrimidin-4-one], the IC50 came out at 780 nM.

Turning to `O=c1[nH]c(N2CCOCC2)nc(NCCN2CCCC2)c1-c1nc2ccccc2s1` [Example 259, 5-(1,3-benzothiazol-2-yl)-2-(morpholin-4-yl)-6-[[2-(pyrrolidin-1-yl)ethyl]amino]-3,4-dihydropyrimidin-4-one], the half-maximal inhibitory concentration (IC50) worked out at 2200 nM.

`CN(C)CCNc1nc(N2CCOCC2)[nH]c(=O)c1-c1nc2ccccc2s1` [Example 260, 5-(1,3-benzothiazol-2-yl)-6-[[2-(dimethylamino)ethyl]amino]-2-(morpholin-4-yl)-3,4-dihydropyrimidin-4-one]: the IC50 is 1600 nM.

For `CC(=O)NCCNc1nc(N2CCOCC2)[nH]c(=O)c1-c1nc2ccccc2s1` [Example 261, N-(2-[[5-(1,3-benzothiazol-2-yl)-2-(morpholin-4-yl)-6-oxo-1,6-dihydropyrimidin-4-yl]amino]ethyl)acetamide], the 50% inhibitory concentration (IC50) amounted to 8200 nM.

Consider `CCC(CO)Nc1nc(N2CCOCC2)[nH]c(=O)c1-c1nc2ccccc2s1` (centres unmarked) [Example 262, 5-(benzo[d]thiazol-2-yl)-6-(1-hydroxy-butan-2-ylamino)-2-morpholino-pyrimidin-4(3H)-one], for which the IC50 worked out at 330 nM.

As for `NC1CCCCC1Nc1nc(N2CCOCC2)[nH]c(=O)c1-c1nc2ccccc2s1` (centres unmarked) [Example 263, 6-(2-aminocyclohexylamino)-5-(benzo[d]thiazol-2-yl)-2-morpholino-pyrimidin-4(3H)-one], the IC50 turned out to be 230 nM.

Consider `O=c1[nH]c(N2CCOCC2)nc(NCCc2ncc[nH]2)c1-c1nc2ccccc2s1` [Example 264, 6-(2-(1H-imidazol-2-yl)ethylamino)-5-(benzo[d]thiazol-2-yl)-2-morpholino-pyrimidin-4(3H)-one], for which the IC50 was determined as 180 nM.

As to `CC(O)CNc1nc(N2CCOCC2)[nH]c(=O)c1-c1nc2ccccc2s1` (centres unmarked) [Example 265, 5-(benzo[d]thiazol-2-yl)-6-(2-hydroxypropylamino)-2-morpholino-pyrimidin-4(3H)-one], the IC50 was found to be 780 nM.

Turning to `CC(C)C[C@H](CO)Nc1nc(N2CCOCC2)[nH]c(=O)c1-c1nc2ccccc2s1` [Example 266, (R)-5-(benzo[d]thiazol-2-yl)-6-(1-hydroxy-4-methylpentan-2-ylamino)-2-morpholinopyrimidin-4(3H)-one], the IC50 stood at 2500 nM.

For the compound `O=c1[nH]c(N2CCOCC2)nc(N[C@H]2c3ccccc3C[C@H]2O)c1-c1nc2ccccc2s1` [Example 267, 5-(benzo[d]thiazol-2-yl)-6-((1S,2R)-2-hydroxy-2,3-dihydro-1H-inden-1-ylamino)-2-morpholinopyrimidin-4(3H)-one], the IC50 came out at 8300 nM.

In the case of `O=c1[nH]c(N2CCOCC2)nc(NC2CCC(O)CC2)c1-c1nc2ccccc2s1` (centres unmarked) [Example 268, 5-(benzo[d]thiazol-2-yl)-6-(4-hydroxycyclo-hexylamino)-2-morpholinopyrimidin-4(3H)-one], the IC50 worked out at 620 nM.

For the compound `O=c1[nH]c(N2CCOCC2)nc(NC2CCCCC2O)c1-c1nc2ccccc2s1` (centres unmarked) [Example 269, 5-(benzo[d]thiazol-2-yl)-6-(2-hydroxycyclohexyl-amino)-2-morpholinopyrimidin-4(3H)-one], the IC50 is 5600 nM.

Consider `O=c1[nH]c(N2CCOCC2)nc(NC(CO)CO)c1-c1nc2ccccc2s1` [Example 270, 5-(benzo[d]thiazol-2-yl)-6-(1,3-dihydroxy-propan-2-ylamino)-2-morpholinopyrimidin-4(3H)-one], for which the IC50 worked out at 110 nM.

`O=c1[nH]c(N2CCOCC2)nc(NCC2CCNCC2)c1-c1nc2ccccc2s1` [Example 271, 5-(1,3-benzothiazol-2-yl)-2-(morpholin-4-yl)-6-[(piperidin-4-ylmethyl)amino]-3,4-dihydropyrimidin-4-one; trifluoroacetic acid]: the 50% inhibitory concentration (IC50) turned out to be 330 nM.

Turning to `CN(C)CCNc1nc(N2CCOCC2)[nH]c(=O)c1-c1ccc2ccccc2n1` [Example 272, 6-[[2-(dimethylamino)ethyl]amino]-2-(morpholin-4-yl)-5-(quinolin-2-yl)-3,4-dihydropyrimidin-4-one], the IC50 amounted to 1600 nM.

As to `O=c1[nH]c(N2CCOCC2)nc(NCCNCCO)c1-c1ccc2ccccc2n1` [Example 273, 6-([2-[(2-hydroxyethyl)amino]ethyl]amino)-2-(morpholin-4-yl)-5-(quinolin-2-yl)-3,4-dihydropyrimidin-4-one], the IC50 was 670 nM.

As for `CN1CCCC(Nc2nc(N3CCOCC3)[nH]c(=O)c2-c2ccc3ccccc3n2)C1` (centres unmarked) [Example 274, 6-[(1-methylpiperidin-3-yl)amino]-2-(morpholin-4-yl)-5-(quinolin-2-yl)-3,4-dihydropyrimidin-4-one], the IC50 was found to be 720 nM.

Regarding `O=c1[nH]c(N2CCOCC2)nc(NC2CNC2)c1-c1ccc2ccccc2n1` [Example 275, 6-[(azetidin-3-yl)amino]-2-(morpholin-4-yl)-5-(quinolin-2-yl)-3,4-dihydropyrimidin-4-one], the IC50 came out at 150 nM.

As for `O=c1[nH]c(N2CCOCC2)nc(NCC2CCCCN2)c1-c1ccc2ccccc2n1` (centres unmarked) [Example 276, 2-morpholino-6-(piperidin-2-ylmethylamino)-5-(quinolin-2-yl)pyrimidin-4(3H)-one], the IC50 was found to be 340 nM.

Consider `CCN1CCCC1CNc1nc(N2CCOCC2)[nH]c(=O)c1-c1ccc2ccccc2n1` (centres unmarked) [Example 277, 6-((1-ethylpyrrolidin-2-yl)methylamino)-2-morpholino-5-(quinolin-2-yl)pyrimidin-4(3H)-one], for which the IC50 is 1600 nM.

Regarding `O=c1[nH]c(N2CCOCC2)nc(NCCN2CCCCC2)c1-c1ccc2ccccc2n1` [Example 278, 2-(morpholin-4-yl)-6-[[2-(piperidin-1-yl)ethyl]amino]-5-(quinolin-2-yl)-3,4-dihydropyrimidin-4-one], the IC50 turned out to be 2800 nM.

As for `O=c1[nH]c(N2CCOCC2)nc(NCCN2CCCC2)c1-c1ccc2ccccc2n1` [Example 279, 2-(morpholin-4-yl)-6-[[2-(pyrrolidin-1-yl)ethyl]amino]-5-(quinolin-2-yl)-3,4-dihydropyrimidin-4-one], the concentration for half-maximal inhibition (IC50) was determined as 4900 nM.

For `O=c1[nH]c(N2CCOCC2)nc(NCC(O)CO)c1-c1ccc2ccccc2n1` (centres unmarked) [Example 281, 6-[(2,3-dihydroxypropyl)amino]-2-(morpholin-4-yl)-5-(quinolin-2-yl)-3,4-dihydropyrimidin-4-one], the IC50 stood at 1700 nM.

The values above are taken from US9221809B2 (MERCK SHARP & DOHME CORP., priority 2011, dated 2015).
